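Cells were grown in 96-well plates and exposed to each compound for 48 hours at five concentrations; endpoints were interpolated linearly between bracketing concentrations, or set to the highest concentration if not reached. TGI marks complete inhibition of growth.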
Legend:
Assay in all cases: NCI-60 cell line screen, 48 h
BT-549 breast = system: BT-549 breast
A498 renal = system: A498 renal
M14 melanoma = system: M14 melanoma
U251 CNS = system: U251 CNS
K-562 leukemia = system: K-562 leukemia
UACC-257 melanoma = system: UACC-257 melanoma
OVCAR-3 ovarian = system: OVCAR-3 ovarian
SF-539 CNS = system: SF-539 CNS
MALME-3M melanoma = system: MALME-3M melanoma
SW-620 colon = system: SW-620 colon
NCI-H460 lung = system: NCI-H460 lung
HL-60(TB) leukemia = system: HL-60(TB) leukemia
NCI/ADR-RES ovarian = system: NCI/ADR-RES ovarian
ACHN renal = system: ACHN renal
KM12 colon = system: KM12 colon
UACC-62 melanoma = system: UACC-62 melanoma
SK-OV-3 ovarian = system: SK-OV-3 ovarian
MDA-MB-231 breast = system: MDA-MB-231 breast
TK-10 renal = system: TK-10 renal
UO-31 renal = system: UO-31 renal
OVCAR-5 ovarian = system: OVCAR-5 ovarian
MCF7 breast = system: MCF7 breast
SNB-19 CNS = system: SNB-19 CNS
NCI-H23 lung = system: NCI-H23 lung
MDA-N = system: MDA-N
SR leukemia = system: SR leukemia
HOP-62 NSCLC = system: HOP-62 NSCLC
NCI-H226 lung = system: NCI-H226 lung
SN12C renal = system: SN12C renal
LOX IMVI melanoma = system: LOX IMVI melanoma
SF-268 CNS = system: SF-268 CNS
MOLT-4 leukemia = system: MOLT-4 leukemia
CAKI-1 renal = system: CAKI-1 renal
EKVX NSCLC = system: EKVX NSCLC
CCRF-CEM leukemia = system: CCRF-CEM leukemia
MDA-MB-435 = system: MDA-MB-435
PC-3 prostate = system: PC-3 prostate
786-0 renal = system: 786-0 renal
SF-295 CNS = system: SF-295 CNS
HT29 colon = system: HT29 colon
HS 578T breast = system: HS 578T breast
SK-MEL-2 melanoma = system: SK-MEL-2 melanoma
RXF 393 renal = system: RXF 393 renal
HCT-116 colon = system: HCT-116 colon
HCT-15 colon = system: HCT-15 colon
SNB-75 CNS = system: SNB-75 CNS
RPMI-8226 leukemia = system: RPMI-8226 leukemia
IGROV1 ovarian = system: IGROV1 ovarian
OVCAR-8 ovarian = system: OVCAR-8 ovarian
SK-MEL-28 melanoma = system: SK-MEL-28 melanoma
COLO 205 colon = system: COLO 205 colon
A549 NSCLC = system: A549 NSCLC
HCC-2998 colon = system: HCC-2998 colon
T-47D breast = system: T-47D breast
OVCAR-4 ovarian = system: OVCAR-4 ovarian
DU-145 prostate = system: DU-145 prostate
SK-MEL-5 melanoma = system: SK-MEL-5 melanoma

`CC(Cn1c2c(c3cc(O)ccc31)CCc1ccc(O)cc1-2)N(C)C` (stereo unspecified) showed a TGI (BT-549 breast) of 36.8 µM, a TGI (A498 renal) of 53.7 µM and a TGI (M14 melanoma) of 28.8 µM. It also gave a TGI (U251 CNS) of over 100 µM, a TGI (K-562 leukemia) of over 100 µM and a TGI (UACC-257 melanoma) of 44.6 µM. The TGI (OVCAR-3 ovarian) was 30.1 µM, the TGI (SF-539 CNS) was 32.1 µM and the TGI (MALME-3M melanoma) was 30.8 µM. For the same molecule, the TGI (SW-620 colon) was 55 µM, the TGI (NCI-H460 lung) was 31.8 µM and the TGI (HL-60(TB) leukemia) was over 100 µM. The TGI (NCI/ADR-RES ovarian) was 41.9 µM, the TGI (ACHN renal) was 30.1 µM and the TGI (KM12 colon) was 29.9 µM. For the same molecule, the TGI (UACC-62 melanoma) was 35.9 µM, the TGI (SK-OV-3 ovarian) was 77 µM and the TGI (MDA-MB-231 breast) was 59.4 µM. The TGI (TK-10 renal) was 37.1 µM, the TGI (UO-31 renal) was 28.3 µM and the TGI (OVCAR-5 ovarian) was 37.2 µM. For the same molecule, the TGI (MCF7 breast) was 36.3 µM, the TGI (SNB-19 CNS) was 37.4 µM and the TGI (NCI-H23 lung) was 41.2 µM. For the same molecule, the TGI (MDA-N) was 48.1 µM, the TGI (SR leukemia) was over 100 µM and the TGI (HOP-62 NSCLC) was 31 µM. For the same molecule, the TGI (NCI-H226 lung) was 37.3 µM, the TGI (SN12C renal) was 68.9 µM and the TGI (LOX IMVI melanoma) was 81 µM. It also gave a TGI (SF-268 CNS) of 53.2 µM, a TGI (MOLT-4 leukemia) of over 100 µM and a TGI (CAKI-1 renal) of 52.8 µM. The TGI (EKVX NSCLC) was 52.9 µM, the TGI (CCRF-CEM leukemia) was over 100 µM and the TGI (MDA-MB-435) was 41 µM. It also gave a TGI (PC-3 prostate) of 27.6 µM, a TGI (786-0 renal) of 35.9 µM and a TGI (SF-295 CNS) of 45.4 µM. It also gave a TGI (HT29 colon) of 35.8 µM, a TGI (HS 578T breast) of 46 µM and a TGI (SK-MEL-2 melanoma) of 31.1 µM. For the same molecule, the TGI (RXF 393 renal) was 53.2 µM, the TGI (HCT-116 colon) was over 100 µM and the TGI (HCT-15 colon) was 30.2 µM. For the same molecule, the TGI (SNB-75 CNS) was 51.2 µM, the TGI (RPMI-8226 leukemia) was over 100 µM and the TGI (IGROV1 ovarian) was 29.1 µM. For the same molecule, the TGI (OVCAR-8 ovarian) was 33.2 µM.

Molecule `COc1ccc(-c2nc(Nc3ccccc3)sc2Cc2sc(Nc3ccccc3)nc2-c2ccc(OC)cc2)cc1` has a TGI (BT-549 breast) of over 100 µM, a TGI (A498 renal) of over 100 µM and a TGI (U251 CNS) of over 100 µM. For the same molecule, the TGI (K-562 leukemia) was over 100 µM, the TGI (SK-MEL-28 melanoma) was over 100 µM and the TGI (UACC-257 melanoma) was over 100 µM. The TGI (OVCAR-3 ovarian) was over 100 µM, the TGI (SF-539 CNS) was over 100 µM and the TGI (MALME-3M melanoma) was over 100 µM. It also gave a TGI (SW-620 colon) of over 100 µM, a TGI (NCI-H460 lung) of over 100 µM and a TGI (HL-60(TB) leukemia) of 52 µM. It also gave a TGI (NCI/ADR-RES ovarian) of over 100 µM, a TGI (ACHN renal) of over 100 µM and a TGI (KM12 colon) of over 100 µM. It also gave a TGI (UACC-62 melanoma) of over 100 µM, a TGI (SK-OV-3 ovarian) of over 100 µM and a TGI (COLO 205 colon) of over 100 µM. The TGI (MDA-MB-231 breast) was over 100 µM, the TGI (TK-10 renal) was over 100 µM and the TGI (UO-31 renal) was over 100 µM. For the same molecule, the TGI (OVCAR-5 ovarian) was over 100 µM, the TGI (MCF7 breast) was over 100 µM and the TGI (SNB-19 CNS) was over 100 µM. For the same molecule, the TGI (A549 NSCLC) was over 100 µM, the TGI (NCI-H23 lung) was over 100 µM and the TGI (HCC-2998 colon) was over 100 µM. It also gave a TGI (MDA-N) of over 100 µM, a TGI (SR leukemia) of over 100 µM and a TGI (HOP-62 NSCLC) of over 100 µM. It also gave a TGI (NCI-H226 lung) of over 100 µM, a TGI (SN12C renal) of over 100 µM and a TGI (T-47D breast) of over 100 µM. The TGI (LOX IMVI melanoma) was over 100 µM, the TGI (OVCAR-4 ovarian) was over 100 µM and the TGI (SF-268 CNS) was over 100 µM. It also gave a TGI (MOLT-4 leukemia) of over 100 µM, a TGI (CAKI-1 renal) of over 100 µM and a TGI (EKVX NSCLC) of over 100 µM. The TGI (CCRF-CEM leukemia) was over 100 µM, the TGI (MDA-MB-435) was over 100 µM and the TGI (DU-145 prostate) was over 100 µM. For the same molecule, the TGI (786-0 renal) was over 100 µM, the TGI (HT29 colon) was over 100 µM and the TGI (RXF 393 renal) was 26.8 µM. For the same molecule, the TGI (HCT-116 colon) was over 100 µM, the TGI (HCT-15 colon) was over 100 µM and the TGI (SNB-75 CNS) was over 100 µM. It also gave a TGI (SK-MEL-5 melanoma) of over 100 µM, a TGI (RPMI-8226 leukemia) of over 100 µM and a TGI (IGROV1 ovarian) of over 100 µM. It also gave a TGI (OVCAR-8 ovarian) of over 100 µM.

Reference: PubChem BioAssay (NCI)
